The subject of data set [1] is MDA-MB-435 human breast cancer cell line. Nature of the data set: MTT cytotoxicity assay, MDA-MB-435. The note with it: mean ± SD of three independent experiments. In kind it is cell-based. The protocol: (§1) These phomoxanthone compounds (1–8) were evaluated for their cyctotoxic activity in vitro against four human cancer cell lines including human breast MDA-MB-435, human colon HCT-116, human lung Calu-3 and human liver Huh7, compared with their effects on the immortalized human breast epithelial cell line MCF-10A by MTT assay using epirubicin (an anticancer drug used widely in the clinic) as positive control.
(§2) MDA-MB-435, HCT-116, Calu-3 and Huh7 were cultured in Dulbecco’s modification Eagle’s medium (DMEM, Invitrogen, Carlsbad, CA, USA) supplemented with 10% fetal bovine serum (FBS, Hyclone, Logan, UT, USA), 2 mM L-glutamine, 100 μg/mL streptomycin and 100 U/mL penicillin (Invitrogen, Carlsbad, CA, USA). MCF-10A cells were cultured in keratinocyte serum free medium (KSFM) supplemented with 0.1–0.2 ng/mL human recombinant epidermal growth factor and 20–30 μg/mL bovine pituitary extract (Invitrogen, Carlsbad, CA, USA). The cells were incubated at 37 °C in a humidified atmosphere with 5% CO2.
(§3) Cells were harvested during logarithmic growth phase and seeded in 96-well plates at a density of 1 × 10^4 cells/mL, and cultured at 37 °C in a humidified incubator (5% CO2) for 24 h, followed by exposure to various concentrations of compounds tested for 48 h. Subsequently 20 μL of MTT (Genview, Houston, TX, USA) solution (5 mg/mL) was added to each well and mixed, the cells were then incubated for an additional 4 h. Culture supernatant was removed using the micropipette, 150 μL of DMSO (Sangon Biotech, Shanghai, China) was added to each well to fully dissolve the MTT-formazan crystals. Cell growth inhibition was determined by measuring the absorbance (Abs) at λ = 570 nm using a microplate reader and calculated according to the following equation: Growth inhibition = (1 − OD of treated cells/OD of control cells) × 100%
(§4) The half maximal inhibitory concentrations (IC50) were obtained from linear regression analysis of the concentration-response curves plotted for each tested compound.

Data set [2] has as its system HCT-116 human colon cancer cell line. Put plainly: MTT cytotoxicity assay, HCT-116. In kind it is cell-based. Conditions: mean ± SD of three independent experiments. Here is the method: as §1, §2, §3, §4
For orientation: Tetrazolium assays rely on reduction of a dye to a coloured formazan, in cell work by metabolically active cells.

For data set [3], the system named is Calu-3 human lung cancer cell line. Nature of the data set: MTT cytotoxicity assay, Calu-3. In kind it is cell-based. Conditions: mean ± SD of three independent experiments. Here is the method: as §1, §2, §3, §4
In data set [4] the test system is Huh7 human liver cancer cell line. Nature of the data set: MTT cytotoxicity assay, Huh7. In kind it is cell-based. Conditions: Huh-7, 48 h exposure, mean ± SD of three independent experiments. The protocol:
as §1, §2, §3, §4

A short description of data set [5]: MTT cytotoxicity assay, MCF-10A. In kind it is cell-based, human. The note with it: human, MCF-10A cells, 48 h exposure, mean ± SD of three independent experiments. The protocol: as §1, §2, §3, §4
Data set [6] relates to MCF-10A immortalized human breast epithelial cell line. Put plainly: MTT cytotoxicity assay, MCF-10A. Conditions: MCF-10A. In kind it is cell-based. The protocol: as §1, §2, §3, §4
For data set [7], the system named is four human cancer cell lines (MDA-MB-435, HCT-116, Calu-3, Huh7). Put plainly: MTT cytotoxicity assay, tested cancer cell lines taken together. In kind it is cell-based. Conditions: for cytotoxic activities against tested cancer cell lines (in words): MDA-MB-435, HCT-116, Calu-3, Huh7. The protocol:
as §1, §2, §3, §4

The test system of the next data set is HCT-116 (colon tumor). Further details: method as in PMID 11520215. Conditions: cited from earlier work.
The next data set relates to A549 (lung tumor). Further details: method as in PMID 11520215. The note with it: cited from earlier work.
The mark [8] stands for this setting: Homo sapiens, MDA-MB-435, 48 h, 48 h exposure.
[9] abbreviates: Homo sapiens, HCT-116, 48 h, 48 h exposure.
[10] abbreviates: Homo sapiens, Calu-3, 48 h, 48 h exposure.
Where [11] appears, read: Homo sapiens, HCT-116, 48 h exposure.
Setting [12] is: Homo sapiens, Calu-3, 48 h exposure.

A value given as a limit tells only on which side of the number the result lay.

What is called IC50 is the point on the concentration scale where inhibition reaches its midpoint. Take `CC(=O)O[C@@H]1[C@H](C)CC(O)=C2C(=O)c3c(O)ccc(-c4ccc(O)c5c4O[C@@]4(CO)C(=C(O)C[C@@H](C)[C@H]4OC(C)=O)C5=O)c3O[C@@]21CO` [Compound 3, Deacetylphomoxanthone C]: the half-maximal inhibitory concentration (IC50) in data set [1] (setting [8]) was above 50 µM; in data set [2] (setting [9]), 44.1 ± 3.29 µM; in data set [3] (setting [10]) it was 43.4 ± 2.09 µM; in data set [4], above 50 µM. The same molecule returned an IC50 at 48 h in [5] above 50 µM. Further, the “cytotoxic effect on the immortalized human breast epithelial cell line (in words)” value (shortened to “cytotoxic effect”) in data set [6] is reported as “no cytotoxic effect”. The “cytotoxic activities against tested cancer cell lines (in words)” value (“cytotoxic activities” below) in data set [7] (MTT) is reported as “weak/no cytotoxic activities”.
For `CC(=O)OC[C@]12Oc3ccc(-c4ccc5c(c4O)C(=O)C4=C(O)C[C@@H](C)[C@@H](OC(C)=O)[C@@]4(CO)O5)c(O)c3C(=O)C1=C(O)C[C@@H](C)[C@H]2OC(C)=O` [Compound 5, dicerandrol B], the IC50 in [1] (48 h exposure) was 8.65 ± 0.66 µM; in data set [1] (setting [8]), below 10 µM; in data set [4], 30.4 ± 1.1 µM. Besides, the IC50 at 48 h in data set [5] turned out to be 8.14 ± 1.27 µM. Further, in data set [6], the “cytotoxic effect” value is “less marked cytotoxic effect”.
In the case of `COc1cccc2c1C(=O)c1c(O)c3c(c(O)c1C2=O)C[C@@](O)(C(=O)CO)C[C@@H]3O[C@H]1C[C@H](N)[C@@H](O)[C@H](C)O1` [epirubicin, reference compound], the figures for the IC50 in data set [2] (setting [11]), in [3] (setting [12]) and in [4] were 0.48 ± 0.029 µM, 1.03 ± 0.1 µM and 0.96 ± 0.01 µM, respectively. The molecule further yielded a half-inhibitory concentration (IC50) at 48 h in data set [5] of 0.48 ± 0.08 µM.
Take `CC(=O)OC[C@]12Oc3ccc(-c4ccc5c(c4O)C(=O)C4=C(O)C[C@@H](C)[C@@H](OC(C)=O)[C@@]4(COC(C)=O)O5)c(O)c3C(=O)C1=C(O)C[C@@H](C)[C@H]2OC(C)=O` [Compound 6, dicerandrol C]: the IC50 in [1] (setting [8]) was 44.1 ± 2.45 µM; in data set [2] (setting [9]), 42.6 ± 2.9 µM; in data set [3] (setting [10]) it was 36.5 ± 3.32 µM; in data set [4], above 50 µM. This molecule registered an IC50 at 48 h in data set [5] of 33 ± 2.74 µM. Moreover, the “anticancer activities against MDA-MB-435, HCT-116 and Calu-3 (in words)” value in data set [7] (MTT, MDA-MB-435, HCT-116, Calu-3) was “weak anticancer activities”.
The melting point is the temperature of the solid-liquid transition. As for `CC(=O)OCC1(C2OC(=O)CC2C)CC(=O)c2c(ccc(-c3ccc4c(c3O)C(=O)C3=C(O)CC(C)C(OC(C)=O)C3(CO)O4)c2O)O1` (stereo not drawn) [Compound 2, Phomolactonexanthone B], the melting point is 101.6 to 102.4 °C. This molecule also had an IC50 in data set [1] (Homo sapiens, MDA-MB-435, 48 h exposure) above 50 µM. Further, the IC50 in data set [2] (setting [11]) was above 50 µM. For the same molecule, in data set [3] (setting [12]), the half-inhibitory concentration (IC50) was above 50 µM. This molecule also yielded a concentration for half-maximal inhibition (IC50) in data set [4] above 50 µM. In addition, the IC50 at 48 h in data set [5] is above 50 µM. In data set [6], the “cytotoxic effect” value is listed as “no cytotoxic effect”. In data set [7] (MTT), the “cytotoxic activities” value was “weak/no cytotoxic activities”.
Turning to `CC(=O)O[C@@H]1[C@H](C)CC(O)=C2C(=O)c3c(ccc(-c4ccc(O)c5c4O[C@@]4(CO)C(=C(O)C[C@@H](C)[C@H]4OC(C)=O)C5=O)c3O)O[C@@]21CO` [Compound 7, deacetylphomoxanthone B], the IC50 in [1] (setting [8]) was 14.4 ± 1.18 µM; in data set [2] (setting [9]), 7.12 ± 0.7 µM; in data set [3] (setting [10]), 4.14 ± 0.02 µM; in data set [4], 29.2 ± 1.19 µM. Further, the half-maximal inhibitory concentration (IC50) at 48 h in [5] was above 50 µM. Further, the “cytotoxic effect” value in data set [6] is recorded as “no cytotoxic effect”. Further, the “cytotoxic activities” value in data set [7] (MTT) was “excellent selective activities against HCT-116 and Calu-3 cell lines over other cancer cell lines”.
In the case of `CC(=O)O[C@@H]1[C@H](C)CC(O)=C2C(=O)c3c(ccc(-c4ccc5c(c4O)C(=O)C4=C(O)C[C@@H](C)[C@@H](OC(C)=O)[C@@]4(CO)O5)c3O)O[C@@]21CO` [Compound 4, dicerandrol A], the concentration for half-maximal inhibition (IC50) in [1] (setting [8]) was 3.03 ± 0.12 µM; in data set [2] (setting [9]), 2.64 ± 0.03 µM; in [3] (setting [10]), 1.76 ± 0.02 µM; in data set [4], 4.19 ± 0.08 µM; in data set [7] (Homo sapiens, summary statement of the abstract, cell lines not specified, read-out: IC50 against tested cancer cell lines), below 10 µM. In [5], this molecule had an IC50 at 48 h of 28.3 ± 3.57 µM. The “cytotoxic effect” value in [6] is “displayed cytotoxic effect”. Besides, the “cytotoxic activities” value in data set [7] (MTT) is reported as “significant cytotoxic activities”. In addition, the “cytotoxic activity against HCT-116 compared with dicerandrol B (in words)” value in the data set on HCT-116 (colon tumor) was “less cytotoxic activities than dicerandrol B”. Moreover, the “cytotoxic activity against A549 compared with dicerandrol B (in words)” value with A549 (lung tumor) was “less cytotoxic activities than dicerandrol B”.
In the case of `CC(=O)OCC1(C2OC(=O)CC2C)CC(=O)c2c(O)ccc(-c3ccc4c(c3O)C(=O)C3=C(O)CC(C)C(OC(C)=O)C3(CO)O4)c2O1` (stereo not drawn) [Compound 1, Phomolactonexanthone A], the 50% inhibitory concentration (IC50) is above 50 µM in data set [1] (setting [8]), above 50 µM in data set [2] (setting [9]), 43.5 ± 2.51 µM in data set [3] (setting [10]) and above 50 µM in [4]. The molecule further showed a concentration for half-maximal inhibition (IC50) at 48 h in [5] above 50 µM. Further, the “cytotoxic effect” value in data set [6] is “no cytotoxic effect”. The “cytotoxic activities” value in [7] (MTT) is “weak/no cytotoxic activities”.
Regarding `CC(=O)OC[C@]12Oc3ccc(-c4ccc(O)c5c4O[C@@]4(CO)C(=C(O)C[C@@H](C)[C@H]4OC(C)=O)C5=O)c(O)c3C(=O)C1=C(O)C[C@@H](C)[C@H]2OC(C)=O` [Compound 8, penexanthone A], the IC50 in data set [1] (48 h exposure) is 7.9 ± 0.58 µM; in [1] (setting [8]), below 10 µM; in data set [2] (48 h exposure) it was 6.92 ± 0.38 µM; in data set [2] (setting [9]) it was below 10 µM; in [3] (48 h exposure), 6.44 ± 0.86 µM; in [3] (setting [10]), below 10 µM. Besides, in data set [4], inhibition was half-maximal at 42.8 ± 3.58 µM (IC50). The molecule further displayed an IC50 at 48 h in data set [5] of 16.1 ± 1.57 µM. For the same molecule, the “cytotoxic effect” value in data set [6] is “less marked cytotoxic effect”.
